Source: PMC10257182, “Discovery of senolytics using machine learning” (Nature Communications, 2023)
“And” between values parts separate entries of the source, which are not always exact repeats. Identical values can stand only once.

How the values were obtained:
Type in all cases: cell-based, human
[1] = system: proliferating IMR90 cells; experiment: BrdU incorporation proliferation assay; settings: IMR90 cells; single replicates (SUP FIG 9G)
Description: 5-bromo-2′-deoxyuridine (BrdU) incorporation was used to measure the number of cells actively replicating DNA. Cells were incubated with 10 μM BrdU (85811, Sigma) for 18 h. After that, cells were fixed with 4% Paraformaldehyde, permeabilised, blocked and then stained for immunofluorescence using BrdU primary antibody (555627 BD Pharmigen), Alexa fluor secondary for detection, and DAPI staining for cell counting. Acquisition was done with a Nikon TI2 microscope and analysis was performed with ImageJ for cell counting.

[2] = system: p16 and p21 mRNA in IMR90 ER:RAS cells; experiment: p16 and p21 mRNA expression by RT-qPCR, OIS; settings: ER:RAS cells; ER:RAS DMSO = 1; n 4
Description: (§1) Total RNA was isolated using RNAeasy kit (Quiagen). cDNA was generated with reverse transcriptase iScript (Bio-Rad). RT-qPCR was performed using SYBR Select Master Mix (Applied Biosystems) in OneStepPlus detection system (Applied Biosystems). Oligos for amplification were: NOXA Fw-[…] and Rv-[…]; b-ACTIN Fw-[…] and Rv-[…]; IL1a Fw-[…] and Rv- […]; IL1b Fw-[…] and Rv- […]; IL8 Fw-[…] and Rv-[…]; p16 Fw-CGGTCGGAGGCCGATCCAG and Rv- […]; p21Fw-[…] and Rv- […].

[3] = system: p16 and p21 mRNA in IMR90 cells at passage 27; experiment: p16 and p21 mRNA expression by RT-qPCR, replicative senescence; settings: Replicative senescence; Replicative senescence DMSO = 1; n 3
Description: as §1

[4] = system: IL1α, IL1β and IL8 mRNA in IMR90 ER:RAS cells; experiment: IL1α, IL1β and IL8 mRNA expression by RT-qPCR, OIS; settings: ER:RAS cells, RAS OLE group mean, RAS C (DMSO) = 1
Description: as §1

[5] = system: IL1α, IL1β and IL8 mRNA in IMR90 cells at passage 27; experiment: IL1α, IL1β and IL8 mRNA expression by RT-qPCR, replicative senescence; settings: Replicative senescence, OLE group mean, DMSO = 1
Description: as §1

[6] = system: senescent A549 cells (etoposide-induced); experiment: Nuclei count senolytic assay, therapy-induced senescence (TIS) model, senescent cells; settings: for % Cell Survival: senescence cells, single replicate
Description: (§2) We performed a second validation of the effectiveness of our machine learning models using a different stressor. We focused on therapy-induced senescence (TIS, Supplementary Fig. 6a), where human epithelial cancerous cells (A549) were induced to become senescent by addition of etoposide. Cells were treated with 100 μM etoposide for 48 h, followed by another three days of exposure to media in standard conditions.
(§3) We performed experimental validation of the compounds with z-score > 8 (Fig. 2e). […] We employed two cellular models of senescence: one of OIS and a second one of TIS. For the OIS case, we utilised IMR90 ER:RAS cells with 4-OHT at 100 nM. […] For the TIS model, we used A549 cells with etoposide at 100 μM. The exposure of the cells to etoposide lasted 48 h, after which period the cells were cultivated for a further three days with normal media.
(§4) IMR90 (CCL-186) human foetal lung fibroblasts and A549 (CCL-185) human lung adenocarcinoma cells were obtained from the American Type Culture Collection (ATCC, Manassas, VA). The cell lines were confirmed to be mycoplasma negative (Lonza MycoAlert, cat #LT07-118). IMR90 ER:RAS is a derivative of IMR90 cells expressing a switchable version of oncogenic H-Ras[84]. IMR90 ER:RAS and A549 cells were maintained in Dulbecco’s Modified Eagle Medium (DMEM, ThermoFisher) supplemented with foetal bovine serum (10%), L-glutamine (2 mM, ThermoFisher), and antibiotic-antimycotic solution (1%, ThermoFisher) and incubated under standard tissue culture conditions (37 °C and 5% CO2). For induction of the senescent phenotype, IMR90-ER:RAS cells were cultured in hydroxytamoxifen (4-OHT) (Sigma) added media at 100 nM final concentration. IMR90 were kept in culture for over 27 passages for replicative senescence. Cells were tested for mycoplasma on a regular basis.
(§5) Cells were seeded (50 μL per well) into 384-well plates (IMR90 ER:RAS cells in Nunc Optical Bottom Polybase Microplates [#142761, Thermo Scientific, Rochester, NY] and A549 cells in CELLSTAR Cell Culture Microplates [#781091, Greiner Bio-One, Kremsmünster, Austria]). Cells were incubated under standard tissue culture conditions for 24 h before the addition of compounds. Passage 14 IMR90 ER:RAS cells were seeded at 1300 cells per well in the control condition, and at 1600 cells per well in the senescent case. Passage 34 A549 cells were seeded at 7000 cells per well in the control condition, and at 10,000 cells per well in the senescent case.
(§6) Dose response plates were prepared with a DMSO control and a 10-point […] concentration range, and added to the compounds using a D300e digital dispenser (Tecan Trading AG, Switzerland) at a final concentration of between 10 μM and 10 nM. Every screened condition was carried out in triplicate. After 72 h of incubation with exposure to the compounds, cells were fixed by the addition of an equal volume of formaldehyde (8%, 50 μL; #BP531-500, Fisher Bioreagents, Fisher Scientific, Loughborough, Leicestershire) to the existing media, incubated at room temperature (30 min), and washed three times in phosphate-buffered saline (PBS). Cells were then permeabilised in Triton-X100 (0.1%, 50 μL) and incubated at room temperature (30 min) followed by three more washes with PBS.
(§7) Cells were stained with Hoechst 33342 for nuclei count (excitation/emission wavelength at 387/447 […], DAPI channel, original concentration at 10 mg/ml, final concentration at 2 μg/ml; H1399, Molecular Probes, Eugene, OR). The staining solution was prepared in bovine serum albumin solution (10%). The staining solution was added to each well (30 μL) and incubated in the dark at room temperature (30 min), followed by three washes with PBS and no final aspiration. Plates were foil sealed.
(§8) Plates were imaged on an ImageXpress micro XLS (Molecular Devices, Eugene, OR) equipped with a robotic plate loader (Scara4, PAA, UK).

[7] = system: non-senescent control A549 cells; experiment: Nuclei count senolytic assay, TIS model, non-senescent control cells; settings: for % Cell Survival: control cells, single replicate
Description: as §2, §3, §4, §5, §6, §7, §8

## COc1cc([C@@H]2c3cc4c(cc3[C@@H](O[C@@H]3O[C@@H]5CO[C@@H](C)O[C@H]5[C@H](O)[C@H]3O)[C@H]3COC(=O)[C@H]23)OCO4)cc(OC)c1O [Etoposide]
[1]
  % BrdU positive cells: 3.24% and 11.47% and 6.41% and 6.29%

## COC1CC(OC2CCC3(C)C(CCC4C3CCC3(C)C(C5=CC(=O)OC5)C(OC(C)=O)CC43O)C2)OC(C)C1O (stereo not drawn) [OLE]
[2]
  p16 mRNA expression, mean (Test details, Mean 2): 0.5169
  p21 mRNA expression, mean (Test details, Mean 2): 0.5115
[3]
  p16 mRNA expression, mean (Test details, Mean 2): 0.5298
  p21 mRNA expression, mean (Test details, Mean 2): 0.4442
[4]; n=4
  Il1a mRNA expression, mean (Mean 2): 0.4376
[4]; n=5
  Il8 mRNA expression, mean (Mean 2): 0.3662
[4]; n=6
  Il1b mRNA expression, mean (Mean 2): 0.7128
[5]; n=3
  Il1a mRNA expression, mean (Mean 2): 0.411
  Il8 mRNA expression, mean (Mean 2): 0.5871
[5]; n=4
  Il1b mRNA expression, mean (Mean 2): 0.4327

## CC1(C)CCC(c2ccc(Cl)cc2)=C(CN2CCN(c3ccc(C(=O)NS(=O)(=O)c4ccc(N[C@H](CCN5CCOCC5)CSc5ccccc5)c(S(=O)(=O)C(F)(F)F)c4)cc3)CC2)C1 [navitoclax, reference compound]
[6]; Homo sapiens, A549, log (dose) [M] -5, Senescent cells, mean, read-out: Mean % Cell Survival
  viability at 10 µM: 6.32%
[6]; Homo sapiens, A549, log (dose) [M] -5.33, Senescent cells, mean, read-out: Mean % Cell Survival
  viability at 4.68 µM: 13.6%
[6]; Homo sapiens, A549, log (dose) [M] -5.66, Senescent cells, mean, read-out: Mean % Cell Survival
  viability at 2.19 µM: 17.1%
[6]; Homo sapiens, A549, log (dose) [M] -6, Senescent cells, mean, read-out: Mean % Cell Survival
  viability at 1 µM: 27.7%
[6]; Homo sapiens, A549, log (dose) [M] -6.33, Senescent cells, mean, read-out: Mean % Cell Survival
  viability at 0.468 µM: 43.7%
[6]; Homo sapiens, A549, log (dose) [M] -6.66, Senescent cells, mean, read-out: Mean % Cell Survival
  viability at 0.219 µM: 65.4%
[6]; Homo sapiens, A549, log (dose) [M] -7, Senescent cells, mean, read-out: Mean % Cell Survival
  viability at 0.1 µM: 94%
[6]; Homo sapiens, A549, log (dose) [M] -7.33, Senescent cells, mean, read-out: Mean % Cell Survival
  viability at 0.0468 µM: 91.8%
[6]; Homo sapiens, A549, log (dose) [M] -7.66, Senescent cells, mean, read-out: Mean % Cell Survival
  viability at 0.0219 µM: 109%
[6]; Homo sapiens, A549, log (dose) [M] -8, Senescent cells, mean, read-out: Mean % Cell Survival
  viability at 0.01 µM: 103%
[6]; Homo sapiens, TIS model, etoposide-induced senescent A549, nuclei count, 72 h
  IC50: 0.44 µM
[6]; TIS A549, Hoechst labelling, marginal or no effect on normal cells
  concentration at which a senolytic effect was reached: 1 µM
[6]; log (dose) [M] -5
  % Cell Survival: 4.269% and 4.259% and 10.4231%
[6]; log (dose) [M] -5.33
  % Cell Survival: 11.4818% and 14.3371% and 14.9601%
[6]; log (dose) [M] -5.66
  % Cell Survival: 15.9961% and 17.9964% and 17.29%
[6]; log (dose) [M] -6
  % Cell Survival: 23.7488% and 24.4151% and 34.8866%
[6]; log (dose) [M] -6.33
  % Cell Survival: 46.0255% and 39.6521% and 45.3096%
[6]; log (dose) [M] -6.66
  % Cell Survival: 63.9352% and 60.5879% and 71.5512%
[6]; log (dose) [M] -7
  % Cell Survival: 88.2728% and 86.8026% and 106.99%
[6]; log (dose) [M] -7.33
  % Cell Survival: 62.8557% and 104.139% and 108.461%
[6]; log (dose) [M] -7.66
  % Cell Survival: 92.002% and 113.377% and 120.969%
[6]; log (dose) [M] -8
  % Cell Survival: 100.736% and 105.159% and 103.556%
[7]; Homo sapiens, A549, log (dose) [M] -5, Control cells, mean, read-out: Mean % Cell Survival
  viability at 10 µM: 61.6%
[7]; Homo sapiens, A549, log (dose) [M] -5.33, Control cells, mean, read-out: Mean % Cell Survival
  viability at 4.68 µM: 105%
[7]; Homo sapiens, A549, log (dose) [M] -5.66, Control cells, mean, read-out: Mean % Cell Survival
  viability at 2.19 µM: 107%
[7]; Homo sapiens, A549, log (dose) [M] -6, Control cells, mean, read-out: Mean % Cell Survival
  viability at 1 µM: 129%
[7]; Homo sapiens, A549, log (dose) [M] -6.33, Control cells, mean, read-out: Mean % Cell Survival
  viability at 0.468 µM: 116%
[7]; Homo sapiens, A549, log (dose) [M] -6.66, Control cells, mean, read-out: Mean % Cell Survival
  viability at 0.219 µM: 109%
[7]; Homo sapiens, A549, log (dose) [M] -7, Control cells, mean, read-out: Mean % Cell Survival
  viability at 0.1 µM: 97.7%
[7]; Homo sapiens, A549, log (dose) [M] -7.33, Control cells, mean, read-out: Mean % Cell Survival
  viability at 0.0468 µM: 98.7%
[7]; Homo sapiens, A549, log (dose) [M] -7.66, Control cells, mean, read-out: Mean % Cell Survival
  viability at 0.0219 µM: 96.8%
[7]; Homo sapiens, A549, log (dose) [M] -8, Control cells, mean, read-out: Mean % Cell Survival
  viability at 0.01 µM: 98.9%
[7]; Homo sapiens, TIS model, non-senescent A549, nuclei count, 72 h
  IC50: 10.2 µM
[7]; log (dose) [M] -5
  % Cell Survival: 52.0394% and 75.3687% and 57.3758%
[7]; log (dose) [M] -5.33
  % Cell Survival: 116.878% and 75.1475% and 123.277%
[7]; log (dose) [M] -5.66
  % Cell Survival: 112.518% and 117.404% and 91.8458%
[7]; log (dose) [M] -6
  % Cell Survival: 119.058% and 135.177% and 132.987%
[7]; log (dose) [M] -6.33
  % Cell Survival: 128.692% and 108.112% and 112.083%
[7]; log (dose) [M] -6.66
  % Cell Survival: 114.276% and 101.991% and 109.489%
[7]; log (dose) [M] -7
  % Cell Survival: 92.6864% and 99.5575% and 100.964%
[7]; log (dose) [M] -7.33
  % Cell Survival: 97.6793% and 98.2301% and 100.074%
[7]; log (dose) [M] -7.66
  % Cell Survival: 95.0774% and 99.4838% and 95.7746%
[7]; log (dose) [M] -8
  % Cell Survival: 98.1716% and 98.2301% and 100.445%
